Laboratory results reported in PMC2897767, “Two Distinct Mechanisms for Actin Capping Protein Regulation—Steric and Allosteric Inhibition” (PLoS Biology, 2010).
“Also recorded” adds a separate entry of the source. Values belong to the substance of their own block, whether it stands above or below them. Where no end group is shown, it is not given here.

What was measured:
[1] = biological target: CPfull (CP wt); test: SPR binding of CP to immobilized V-1; set-up: species or system chicken; settings: V-1 mutant immobilized, analyte CP wt, equilibrium KD from Michaelis-Menten plots at saturated binding, not detectable = no binding at highest concentrations tested (≥ 50 µM)
Experimental: (§1) The binding affinities of CP for V-1 or CARMIL proteins were evaluated by surface plasmon resonance measurements with Biacore 3000 or Biacore 2000 instruments (GE Healthcare). GST-fusion proteins (GST-V-1, GST-CA, or GST-CD) were immobilized onto a CM5 sensor chip up to 200 RU (response units; 200 pg/mm^2) via anti-GST antibodies. CP at various concentrations in running buffer (50 mM KCl, 1 mM MgCl2, 0.005% Tween-20, 10 mM imidazole, pH 7.0) was perfused over the chip at 20°C, at a flow rate of 20 µl/min. Response curves were obtained by subtracting the background signal generated simultaneously on a control flow cell with immobilized GST. To measure the effect of the CARMIL peptides on the facilitation of CP/V-1 dissociation (in Figure 11C and 11D), we used the “co-inject” mode for successive injections of the peptides followed by CP. Kinetic parameters were determined by fitting the sensorgrams to a simple 1∶1 binding model, using the Bia-evaluation software (GE Healthcare). KD values were obtained from the kinetic rate constants. […] KD values were evaluated by plotting these values against the concentrations of CP.
^a Kinetic parameters were determined by fitting of the sensorgrams to a 1:1 binding model. KD = koff / kon .
^b Kinetic parameters were not determined for mutant proteins, due to the fast dissociation of the complex (koff > 0.1 s^-1). […]

[2] = tested on: CPfull (wild type CP); test: Actin polymerization assay (barbed end elongation from spectrin-actin seeds): inhibition of CP capping; assay type: biochemical, chicken; settings: actin 1.2 µM (5% pyrene-labeled); for inhibition of CP capping activity by V-1 proteins: 3 nM wild type CP, various concentrations of V-1, 25°C (Figure S2); for inhibition of barbed end capping by CARMIL peptides: 3.6 nM CPfull, various peptide concentrations, 25°C (Figure 9D)
Experimental: (A) Superposition of the C-termini of the peptides. CD Phe505 and CK Arg169 are shown as stick models. The conserved proline at the C-terminus of the motifs is shown as balls. (B) CD2AP constructs used for biochemical assays. (C) CARMIL constructs used for biochemical assays. […] Actin (1.2 µM, 5% pyrene-labeled) was polymerized from spectrin-actin seeds in the presence of 3.6 nM CPfull (D), 10 nM CPβΔC (E), or 7.2 nM CPfull (F) with various concentrations of CARMIL peptides or GST-CA constructs.
The barbed end elongation assay from spectrin-actin seeds was performed essentially as previously described. Briefly, G-actin was stored in G-buffer (0.2 mM CaCl2, 0.2 mM ATP, 0.5 mM DTT and 10 mM imidazole, pH 7.0). At 90 s prior to polymerization, the Ca^2+ was replaced with Mg^2+, by the addition of 1/10 volume of 10 mM EGTA and 1 mM MgCl2 to G-actin. […] Actin polymerization was measured by monitoring the pyrene-actin fluorescence (excitation 370 nm; emission 410 nm) at 25°C.
(0.16 MB TIF) Click here for additional data file.

[3] = tested on: CP; test: SPR binding of CP to immobilized GST-CD2AP / GST-CARMIL fragments; set-up: species or system chicken; settings: 20°C; for koff / kon: SPR (Biacore), CP perfused, 1:1 binding model; for koff: GST-fusion immobilized; for kon: GST-fusion immobilized via anti-GST antibody on CM5 chip, 50 mM KCl, 1 mM MgCl2, 0.005% Tween-20, 10 mM imidazole pH 7.0
Experimental: Expression vectors for chicken CPfull and CPΔβC were constructed in pETDuet-1 by PCR, using pET-3d/CP [38] as the template. CP was expressed in E. coli Rosetta2 (DE3) and was purified as described. V-1 (human), expressed in E. coli Rosetta2 (DE3) as a GST-fusion protein, was affinity-purified and the tag was removed. Synthetic peptides derived from CARMIL proteins were obtained from Invitrogen. For crystallization, CP was incubated with a 1.2–2.0-fold molar excess of V-1 or CARMIL peptides at 4°C for 2 h, followed by gel filtration to purify the complexes. Expression vectors for the GST-CA constructs were prepared from the mouse cDNA clone as previously described. Vectors for GST-CD fragments were constructed by PCR cloning using a human whole brain cDNA library (Clontech) as the template. Amplified DNA fragments were cloned into pGEX-6P-1. GST-fusion proteins were expressed in E. coli Rosetta2 (DE3) cells and affinity-purified using glutathione sepharose resin. Mutations were introduced using a Quikchange mutagenesis kit (Stratagene). Actin was prepared from rabbit skeletal muscle, as previously described, and was further purified by gel filtration chromatography. Pyrene labeled-actin was prepared as described. Spectrin-actin seeds were prepared from rabbit red blood cells, as previously described.
as §1

[4] = tested on: CP; test: SPR competition with immobilized GST-CA92 for CP binding; set-up: species or system chicken; settings: 50 nM wild type CP pre-mixed with various concentrations of peptide (Figure S7)
Experimental: (§2) GST-fusion proteins (GST-V-1, GST-CA, or GST-CD) were immobilized onto a CM5 sensor chip up to 200 RU (response units; 200 pg/mm^2) via anti-GST antibodies. […] Response curves were obtained by subtracting the background signal generated simultaneously on a control flow cell with immobilized GST. […] Kinetic parameters were determined by fitting the sensorgrams to a simple 1∶1 binding model, using the Bia-evaluation software (GE Healthcare). KD values were obtained from the kinetic rate constants.
(0.25 MB TIF) Click here for additional data file.

[5] = tested on: CP wt / GST-V-1 interaction; test: SPR assay of the effect of CARMIL peptides on CP/V-1 binding; set-up: species or system chicken CP, human V-1
Experimental: GST-V-1 was immobilized on a sensor chip.
as §2

KD [1]: not detectable ^c
Substance: V-1 D44R: V-1 point mutant Asp44 to Arg
inhibition of CP capping activity by V-1 proteins [2]: little inhibitory effect; also recorded: minimal effects on CP capping

koff ([3]; pH 7.0): >0.1 s⁻¹
KD (in words) ([3]; SPR, pH 7.0): micromolar range
Substance: GST-CA55: GST fusion of mouse CARMIL residues 962–1016 (FPSVRQEKRSSGLISELPSEEGRRLEHFTKLRPKRNKKQQPTQAAVCTISILPQD; also: GST fusion, end not given here)

kon [3]: 540000 M⁻¹ s⁻¹
koff ([3]; pH 7.0): 0.033 s⁻¹
Substance: GST-CD44: GST fusion of human CD2AP residues 461–504 (FDSLTVRTSKETDVVNFDDIASSENLLHLTANRPKMPGRRLPGR; also: GST fusion, end not given here)

koff ([3]; pH 7.0): >0.1 s⁻¹
Substance: GST-CD43: GST fusion of human CD2AP residues 461–503 (FDSLTVRTSKETDVVNFDDIASSENLLHLTANRPKMPGRRLPG; also: GST fusion, end not given here)

competition with immobilized GST-CA92 for CP binding [4]: effectively compete
facilitation of dissociation of CP from immobilized GST-V-1 ([5]; 45 nM CP wt perfused first, then 100 nM peptide, versus buffer control (Figure 11C)): CP dissociated from V-1 quite rapidly
inhibition of CP/V-1 complex formation ([5]; GST-V-1 immobilized, 100 nM peptide premixed with 45 nM CP wt (Figure 11A)): strongly inhibited
Substance: CD23: synthetic peptide, human CD2AP residues 485–507 (CP-binding motif) (NLLHLTANRPKMPGRRLPGRFNG; UniProt Q9Y5K6 485-507, looked up, fragment)
inhibition of barbed end capping by CARMIL peptides [2]: moderately inhibited

Substance: CD30: peptide with 7 extra residues at the C-terminus of CD23 (NLLHLTANRPKMPGRRLPGRFNGGHSPTHS; UniProt Q9Y5K6 485-514, looked up, fragment)
inhibition of barbed end capping by CARMIL peptides [2]: higher CP inhibition activity than CD23

Substance: V-1 W8A: V-1 point mutant Trp8 to Ala
inhibition of CP capping activity by V-1 proteins [2]: little inhibitory effect; also recorded: minimal effects on CP capping

Kd [1]: 21 µM
Substance: V-1 E78R: V-1 point mutant Glu78 to Arg
inhibition of CP capping activity by V-1 proteins [2]: little inhibitory effect; also recorded: minimal effects on CP capping

kon [3]: 1.6e+06 M⁻¹ s⁻¹
koff ([3]; pH 7.0): 0.029 s⁻¹
Substance: GST-CD47: GST fusion of human CD2AP residues 461–507 (FDSLTVRTSKETDVVNFDDIASSENLLHLTANRPKMPGRRLPGRFNG; also: GST fusion, end not given here)
